Literature values as cited in paper PMC6530635, “A Novel Single-Site Mutation in the Catalytic Domain of Protoporphyrinogen Oxidase IX (PPO) Confers Resistance to PPO-Inhibiting Herbicides” (Frontiers in Plant Science, 2019).

Test system: Amaranthus palmeri MIS-D population
Set-up: method as in Salas-Perez et al., 2017
Conditions: MIS-D field population; 1X dose; ref Salas-Perez et al., 2017; cited from earlier work

In the case of `Cc1nn(-c2cc(CC(Cl)C(=O)O)c(Cl)cc2F)c(=O)n1C(F)F` (stereo not shown) [Carfentrazone], the “Frequency of resistant plants” value is listed as 20%.
